# Target: T1, mouse recombinant sEH (Mus musculus, UniProt P34914)
# T1 sequence (P34914 1-554): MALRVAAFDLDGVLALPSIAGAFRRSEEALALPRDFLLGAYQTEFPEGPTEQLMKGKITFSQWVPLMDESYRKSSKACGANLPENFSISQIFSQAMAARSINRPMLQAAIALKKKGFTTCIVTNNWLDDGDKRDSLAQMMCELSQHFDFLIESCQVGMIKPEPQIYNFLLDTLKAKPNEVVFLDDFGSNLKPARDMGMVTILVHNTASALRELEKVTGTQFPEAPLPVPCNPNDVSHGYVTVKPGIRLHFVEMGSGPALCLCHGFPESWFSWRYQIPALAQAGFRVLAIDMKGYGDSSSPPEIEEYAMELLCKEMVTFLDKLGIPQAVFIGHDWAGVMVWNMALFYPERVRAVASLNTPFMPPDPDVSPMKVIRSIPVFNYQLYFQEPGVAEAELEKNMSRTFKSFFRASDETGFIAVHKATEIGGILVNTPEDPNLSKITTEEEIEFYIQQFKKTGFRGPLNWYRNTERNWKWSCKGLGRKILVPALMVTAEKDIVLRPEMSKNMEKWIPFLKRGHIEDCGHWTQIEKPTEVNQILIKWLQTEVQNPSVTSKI
# Experiment: Fluorescence-based sEH activity assay (PHOME substrate), mouse enzyme
# Assay type: biochemical
# Settings: dose-dependent assay; read-out: Mouse sEH Inhibition IC50
# Protocol: (§1) A fluorescence-based sEH activity assay provided a convenient method for screening human epoxide hydrolase inhibitors. The assay utilized (3-Phenyl-oxiranyl)-acetic acid cyano-(6-methoxy-naphthalen-2-yl)-methyl ester (PHOME) as a substrate. […] The inhibitory function of the compounds on sEH activity was tested as detailed in the product manual from Cayman Chemical. Briefly, 3 mL sEH assay buffer (10×) was diluted with 27 mL HPLC-grade water. This final assay buffer, 25 mM bis-tris (pH 7.0), was used in the assay and for the dilution of the soluble epoxide hydrolase (sEH) enzyme. Amounts of 12 μL each of human and mouse recombinant sEH were thawed on ice. Prior to assaying, 588 μL cold assay buffer was added directly to the enzyme vial. An amount of 190 μL assay buffer and 5 μL solvent (40% DMSO in assay buffer) were added to the background wells. In the 100% initial activity wells, 185 μL assay buffer, 5 μL sEH, and 5 μL solvent were added. In inhibitor wells, 185 μL assay buffer, 5 μL solution of the synthesized compounds, and 5 μL of recombinant enzyme solution were added. To start the reaction, 5 μL of PHOME was added to each well at a final concentration of 0.25 mM. The microwell plate was shaken carefully for 10 s and covered with a plate cover.
# (§2) Average fluorescence (AF) of the background wells and 100% initial activity in the wells and of each of the inhibitors were determined. The background AF was subtracted from the 100% initial activity and inhibitor AFs. The % sEH activity is calculated as (inhbitited AF/% 100 initial activity) × 100.
# (§3) Multiple concentrations of the inhibitors were tested followed by plotting of the percent activity as a function of inhibitor concentration to determine the IC50 values.
row,SMILES,IC50 [nM]
1,COc1ccc(S(=O)(=O)NC(=O)NC23CC4CC(CC(C4)C2)C3)cc1 [Compound 4e],> 1000
2,O=C(NC12CC3CC(CC(C3)C1)C2)NS(=O)(=O)c1ccc(Cl)cc1 [Compound 4k],> 1000

# Target: T2, human recombinant sEH (Homo sapiens, UniProt P34913)
# T2 construct: purchased Cayman Chemical 10011671
# T2 sequence (P34913 1-555): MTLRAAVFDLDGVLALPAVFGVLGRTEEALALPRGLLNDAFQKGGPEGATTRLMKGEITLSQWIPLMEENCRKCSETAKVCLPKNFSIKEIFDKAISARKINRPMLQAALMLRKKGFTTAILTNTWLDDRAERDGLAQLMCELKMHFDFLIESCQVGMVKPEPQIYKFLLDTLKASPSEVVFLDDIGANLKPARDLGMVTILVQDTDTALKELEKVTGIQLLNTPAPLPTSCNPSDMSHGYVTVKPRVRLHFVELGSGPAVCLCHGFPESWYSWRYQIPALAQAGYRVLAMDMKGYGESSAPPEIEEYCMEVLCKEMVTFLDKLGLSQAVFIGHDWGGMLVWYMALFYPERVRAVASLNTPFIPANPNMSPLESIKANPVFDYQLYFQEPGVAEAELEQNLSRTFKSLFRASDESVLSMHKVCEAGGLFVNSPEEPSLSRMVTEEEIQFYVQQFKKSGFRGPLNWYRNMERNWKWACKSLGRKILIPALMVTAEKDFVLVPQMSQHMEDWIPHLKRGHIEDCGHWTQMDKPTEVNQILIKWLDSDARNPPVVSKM
# Experiment: Fluorescence-based sEH activity assay (PHOME substrate), human enzyme
# Assay type: biochemical
# Settings: not given
# Protocol: as §1, with “added.” for “added. To start the reaction, 5 μL of PHOME was added to each well at a final concentration of 0.25 mM. The microwell plate was shaken carefully for 10 s and covered with a plate cover.”
# as §2, §3
SMILES,Human sEH % Inhibition [%],human sEH inhibitory activity (in words)
CN(C)N/C(=N\S(=O)(=O)c1ccc(OC(F)(F)F)cc1)NC12CC3CC(CC(C3)C1)C2 [Compound 9d],7.65,–
COc1ccc(S(=O)(=O)NC(=O)NC23CC4CC(CC(C4)C2)C3)cc1 [Compound 4e],95.39,–
CN/C(=N\S(=O)(=O)c1ccc(OC(F)(F)F)cc1)NC12CC3CC(CC(C3)C1)C2 [Compound 8b],13.06,–
O=C(NC12CC3CC(CC(C3)C1)C2)NS(=O)(=O)c1ccc(Cl)cc1 [Compound 4k],96.47,–
"O=C(NC12CC3CC(CC(O)(C3)C1)C2)NS(=O)(=O)c1ccc(C(F)(F)F)cc1 [Compound 10b, N-((-3-hydroxyadamantan-1-yl)carbamoyl)-4-(trifluoromethyl)benzenesulfonamide]",21.26,–
"CC(C)(C)c1ccc(S(=O)(=O)NC(=O)NC23CC4CC(CC(O)(C4)C2)C3)cc1 [Compound 10c, 4-(tert-butyl)-N-((-3-hydroxyadamantan-1-yl)carbamoyl)benzenesulfonamide]",3.08,–
N/C(=N\S(=O)(=O)c1ccc(OC(F)(F)F)cc1)NC12CC3CC(CC(C3)C1)C2 [Compound 8a],40.19,–
CNN/C(=N\S(=O)(=O)c1ccc(OC(F)(F)F)cc1)NC12CC3CC(CC(C3)C1)C2 [Compound 9b],9.83,–
"O=C(NC12CC3CC(CC(C3)C1)C2)NS(=O)(=O)c1ccccc1OC(F)(F)F [Compound 4h, N-((adamantan-1-yl)carbamoyl)-2-(trifluoromethoxy)benzenesulfonamide]",6.28,sEH inhibition decreased to a significant extent
"O=C(NC1CCNCC1)NS(=O)(=O)c1ccc(OC(F)(F)F)cc1 [Compound 17, N-(piperidin-4-ylcarbamoyl)-4-(trifluoromethoxy)benzenesulfonamide]",32.02,none of them showed any activity
CC(C)(C)c1ccc(S(=O)(=O)NC(=O)NC23CC4CC(CC(C4)C2)C3)cc1 [Compound 4d],32.7,–
"O=C(NS(=O)(=O)c1ccc(OC(F)(F)F)cc1)N1CCC(C(F)(F)F)CC1 [Compound 13, N-((4-(trifluoromethoxy)phenyl)sulfonyl)-4-(trifluoromethyl)piperidine-1-carboxamide]",2.75,none of them showed any activity
"Cc1ccc(S(=O)(=O)NC(=O)NC23CC4CC(CC(O)(C4)C2)C3)cc1 [Compound 10a, N-((3-hydroxyadamantan-1-yl)carbamoyl)-4-methylbenzenesulfonamide]",22.47,–
"O=C(NC12CC(F)(C1)C2)NS(=O)(=O)c1ccc(OC(F)(F)F)cc1 [Compound 11c, N-((3-fluorobicyclo [1.1.1]pentan-1-yl)carbamoyl)-4-(trifluoromethoxy)benzenesulfonamide]",1.67,–
"CC(C)(C)c1ccc(S(=O)(=O)NC(=S)NC23CC4CC(CC(C4)C2)C3)cc1 [Compound 6b, N-((adamantan-1-yl)carbamothioyl)-4-(tert-butyl)benzenesulfonamide]",1.80,–
"COc1ccc(S(=O)(=O)NC(=S)NC23CC4CC(CC(C4)C2)C3)cc1 [Compound 6c, N-((adamantan-1-yl)carbamothioyl)-4-methoxybenzenesulfonamide]",2.50,–
"CC(C)(C)OC(=O)N1CCC(NC(=O)NS(=O)(=O)c2ccc(OC(F)(F)F)cc2)CC1 [Compound 16, tert-butyl 4-(3-((4-(trifluoromethoxy)phenyl)sulfonyl)ureido)piperidine-1-carboxylate]",23.03,none of them showed any activity
"N#Cc1ccc(S(=O)(=O)NC(=O)NC23CC4CC(CC(C4)C2)C3)cc1 [Compound 4i, N-((adamantan-1-yl)carbamoyl)-4-cyanobenzenesulfonamide]",19.36,–
"O=C(NC12CC(C1)C2)NS(=O)(=O)c1ccc(OC(F)(F)F)cc1 [Compound 11a, N-(bicyclo [1.1.1]pentan-1-ylcarbamoyl)-4-(trifluoromethoxy)benzenesulfonamide]",4.28,–
"O=C(NC1C2CC3CC(C2)CC1C3)NS(=O)(=O)c1ccc(OC(F)(F)F)cc1 (stereo not shown) [Compound 12, N-((adamantan-2-yl)carbamoyl)-4-(trifluoromethoxy)benzenesulfonamide]",34.53,none of them showed any activity
O=S(=O)(/N=C(\NNc1ccccc1)NC12CC3CC(CC(C3)C1)C2)c1ccc(OC(F)(F)F)cc1 [Compound 9c],4.71,–
"O=C(NC1CCCCC1)NS(=O)(=O)c1ccc(OC(F)(F)F)cc1 [Compound 14, N-(cyclohexylcarbamoyl)-4-(trifluoromethoxy)benzenesulfonamide]",32.26,none of them showed any activity
"O=C(NC12CC3CC(CC(C3)C1)C2)NS(=O)(=O)c1ccc(C(F)(F)F)cc1 [Compound 4c, N-((adamantan-1-yl)carbamoyl)-4-(trifluoromethyl)benzenesulfonamide]",34.06,–
"N#CC12CC(NC(=O)NS(=O)(=O)c3ccc(OC(F)(F)F)cc3)(C1)C2 [Compound 11b, N-((3-cyanobicyclo [1.1.1]pentan-1-yl)carbamoyl)-4-(trifluoromethoxy)benzenesulfonamide]",7.47,–
CS/C(=N\S(=O)(=O)c1ccc(OC(F)(F)F)cc1)NC12CC3CC(CC(C3)C1)C2 [Compound 7],32.83,–
"O=C(NC12CC3CC(CC(C3)C1)C2)NS(=O)(=O)c1cccc(OC(F)(F)F)c1 [Compound 4g, N-((adamantan-1-yl)carbamoyl)-3-(trifluoromethoxy)benzenesulfonamide]",1.65,sEH inhibition decreased to a significant extent

# Same assay, conditions: dose-dependent assay; read-out: Human sEH Inhibition IC50
row,SMILES,IC50 [nM]
1,COc1ccc(S(=O)(=O)NC(=O)NC23CC4CC(CC(C4)C2)C3)cc1 [Compound 4e],2.94
2,O=C(NC12CC3CC(CC(C3)C1)C2)NS(=O)(=O)c1ccc(Cl)cc1 [Compound 4k],2
